Reference: patent US9856218B2, “Inhibitors of PRMT5 and methods of their use” (Ohio State Innovation Foundation, priority 2013, dated 2018)

Tests used:
[1] = tested on: FLT3 response element in THP-1 cells; assay: FLT3-promoter-Luciferase reporter assay; type: cell-based
Protocol: Promoter region of FLT3 (SEQ ID NO. 1: […] […] […] […] […] […] […] […] […] […] […] […] […] […] CGCGAGGCGCGCCGCT.[…] […] […] […] […] […] […]) was cloned into pGL4.11 [luc2P] vector. THP-1 cells were transfected with empty vector or FLT3-promoter luciferase plasmid and Renilla in presence or absence of C12. Firefly luciferase and Renilla luciferase activity was measured using Dual-Luciferase Reporter Assay System (Promega).
A key regulator of FLT3 expression in AML has been previously identified: a transactivation complex composed of transcription factors SP1 and NFκB(p65) (Liu, S., et al. (2010) Cancer Cell 17, 333-347; Blum, W., et al. (2012) Blood 119, 6025-6031). […] The role of PRMT5 in recruitment and localization of these factors to regulatory region of FLT3 was then tested using a chromatin immunoprecipitation (ChIP) assay and antibodies specific for NFκB(p65), SP1 and primers designed to amplify predicted binding sites at the promoter region of FLT3 (Liu, S., et al. (2008) Blood 4, 2364-2373; Liu, S., et al. (2010) Cancer Cell 17, 333-347). […] PRMT5 was then overexpressed in MV4-11 and THP-1 cells, and the ChIP experiment repeated. […] Additionally, supporting a functional role for PRMT5 in modulating FLT3 activity, inhibition of PRMT5 following exposure to C12 disrupted the FLT3 response element (i.e. FLT3-promoter-Luciferase reporter) activities in THP-1 cells (FIG. 43B). […]

[2] = 24 hr Quick MTD test, one mouse for each dose; type: in vivo
Protocol: Controlled shRNA depletion was evaluated in a murine lymphoma model (Eμ-BRD2 (Chung, J., et al. (2013) J. Biological Chemistry 288, 35534-35547)) and human xenograft model of glioblastoma (Yan, F., et al (2014) Cancer Research In Press). Referring to FIG. 62A, controlled expression of a PRMT5 shRNA (solid line) but not control shRNA (dashed line) leads to 100% survival of mice engrafted primary DLBCL tumor cells. […] The maximum tolerated dose (MTD, single dose) was identified at 50 mg/kg (see Table 11 below). A sub-toxic dose (25 mg/kg) was used to treat FcMCL mice. Control mice developed peripheral blood and lymph node tumor burden starting day 20 post-engraftment.

[3] = target: T1, recombinant PRMT4 (Mus musculus, UniProt Q9WVG6); assay: Histone methyltransferase assay, [3H]SAM; type: biochemical; conditions: FIG. 33A
T1 construct: purchased Millipore 14-575
Protocol: (§1) Histone methylation was performed in the presence of DMSO, and 1-40 μM inhibitor compounds. […] After 1.5 h incubation at 30° C., reaction mixtures were spotted on Whatman P-81 filter paper, washed five times with 10 mL of […] sodium carbonate buffer (pH 9.0) to remove unincorporated [3H]SAM, and methylated peptides were detected by scintillation counting.
as §1, with “HLCL-32, HLCL-10, HLCL-61 and HLCL-64.” for “inhibitor compounds.”, “After a” for “After”, “C.” for “C.,”, “[^3H]SAM,” for “[3H]SAM,”

[4] = target: T2, recombinant PRMT1 (Rattus norvegicus, UniProt Q63009); assay: Histone methyltransferase assay, [3H]SAM; type: biochemical
T2 construct: purchased Millipore 14-474
Protocol: as §1
as §1, with “HLCL-32, HLCL-10, HLCL-61 and HLCL-64.” for “inhibitor compounds.”, “After a” for “After”, “C.” for “C.,”, “[^3H]SAM,” for “[3H]SAM,”

[5] = target: T3, affinity-purified hSWI/SNF associated Fl-PRMT7 (Homo sapiens, UniProt Q9NVM4); assay: Histone methyltransferase assay, [3H]SAM; type: biochemical; conditions: FIG. 33A
T3 construct: made in house
Protocol: as §1
as §1, with “HLCL-32, HLCL-10, HLCL-61 and HLCL-64.” for “inhibitor compounds.”, “After a” for “After”, “C.” for “C.,”, “[^3H]SAM,” for “[3H]SAM,”

[6] = tested on: THP-1; assay: MTS growth inhibition assay; type: cell-based; conditions: Homo sapiens; THP-1, FLT3-WT, 48 h
Protocol: Clonogenic assays were set up by plating 1×10^3 cell/mL in semi-solid methylcellulose medium (MethoCult, Stem Cell Technologies). Colonies were counted after 10-14 days using an inverted microscope. Growth inhibition assays were measured using a colorimetric MTS assay: 5×10^4 cells were plated in 100 μL final volume in a 96-well plate in the presence of different concentrations of C12 for 24, 48 and 72 hours at 37° C. Afterwards, 20 μL of the CellTiter 96W AQueous One Solution Reagent, which contains tetrazolium compound [3-(4,5-[…])-5-(3-carboxymethoxyphenyl)-2-(4-sulfophenyl)-2H-tetrazolium, inner salt; MTS] and an electron coupling reagent (phenazine ethosulfate; PES) (Promega, Madison Wis.), was added to each well. Within 1-4 hours of incubation at 37° C., the optical density at 490 and 690 nm was measured. Cell viability was calculated with respect to the control samples and reference background wavelength at 690 nm. At least three independent experiments were performed. Growth curve assays were done by counting live cells using Trypan blue exclusion and inverted microscope for >12 days after plating the cells in 1×10^5 concentrations.
PRMT5 inhibition by C12 was also effective in promoting apoptosis and differentiation.
Referring to FIGS. 34A and 34B, a colorimetric MTS assay was used to measure the proliferation rate of AML cell lines and primary blasts from patients after 48 hours incubation with a PRMT5 inhibitor compound (HLCL61 or C12). The dose-dependent decrease in absorbance indirectly correlates with the number of metabolically active live cells. The IC50 values represent the concentration of the compound at which 50% cell death was achieved.

[7] = target: T4, recombinant human PRMT5/MEP50 enzyme (Homo sapiens, UniProt O14744); assay: Epigenase PRMT methyltransferase (type II-specific) activity/inhibition assay kit; type: biochemical; conditions: 25 ng recombinant human PRMT5/MEP50 per reaction; read-out: Inhibition of PRMT5 mediated H4R3 methylation (IC50)
T4 construct: purchased BPS Bioscience
Protocol: The inhibition of PRMT5 mediated H4R3 methylation result was obtained with Epigenase™ PRMT methyltransferase (type II-specific) activity/inhibition assay kit. 25 ng recombinant human PRMT5/MEP50 enzyme (purchased from BPS Bioscience) was used in each reaction.

T2 sequence (Q63009 whole entry): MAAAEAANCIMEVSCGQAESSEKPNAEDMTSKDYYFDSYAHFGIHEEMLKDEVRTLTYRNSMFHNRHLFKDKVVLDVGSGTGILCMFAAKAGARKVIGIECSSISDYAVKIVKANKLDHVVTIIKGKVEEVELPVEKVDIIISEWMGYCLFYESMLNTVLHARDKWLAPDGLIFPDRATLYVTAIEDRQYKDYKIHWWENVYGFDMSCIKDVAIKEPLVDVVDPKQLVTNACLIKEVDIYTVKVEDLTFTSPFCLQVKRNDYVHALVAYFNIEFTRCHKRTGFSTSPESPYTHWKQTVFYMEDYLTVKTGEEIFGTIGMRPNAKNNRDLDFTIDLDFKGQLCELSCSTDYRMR
T1 sequence (Q9WVG6 whole entry): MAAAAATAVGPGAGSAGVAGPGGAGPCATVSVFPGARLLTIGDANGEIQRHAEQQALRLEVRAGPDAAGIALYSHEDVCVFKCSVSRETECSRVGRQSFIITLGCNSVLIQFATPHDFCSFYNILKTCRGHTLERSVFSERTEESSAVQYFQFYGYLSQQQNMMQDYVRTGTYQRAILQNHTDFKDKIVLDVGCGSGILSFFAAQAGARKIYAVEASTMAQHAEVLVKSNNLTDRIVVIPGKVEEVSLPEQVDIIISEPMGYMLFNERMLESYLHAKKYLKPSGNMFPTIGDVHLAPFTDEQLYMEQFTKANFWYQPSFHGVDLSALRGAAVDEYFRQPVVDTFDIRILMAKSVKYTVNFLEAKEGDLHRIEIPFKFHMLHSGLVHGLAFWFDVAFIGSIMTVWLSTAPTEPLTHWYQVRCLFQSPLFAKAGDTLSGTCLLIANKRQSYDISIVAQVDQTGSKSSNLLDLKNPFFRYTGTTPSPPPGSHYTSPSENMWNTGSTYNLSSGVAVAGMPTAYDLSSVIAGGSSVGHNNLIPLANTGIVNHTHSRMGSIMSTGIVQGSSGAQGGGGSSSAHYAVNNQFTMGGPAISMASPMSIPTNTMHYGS
T4 sequence (O14744 2-637 limits assumed): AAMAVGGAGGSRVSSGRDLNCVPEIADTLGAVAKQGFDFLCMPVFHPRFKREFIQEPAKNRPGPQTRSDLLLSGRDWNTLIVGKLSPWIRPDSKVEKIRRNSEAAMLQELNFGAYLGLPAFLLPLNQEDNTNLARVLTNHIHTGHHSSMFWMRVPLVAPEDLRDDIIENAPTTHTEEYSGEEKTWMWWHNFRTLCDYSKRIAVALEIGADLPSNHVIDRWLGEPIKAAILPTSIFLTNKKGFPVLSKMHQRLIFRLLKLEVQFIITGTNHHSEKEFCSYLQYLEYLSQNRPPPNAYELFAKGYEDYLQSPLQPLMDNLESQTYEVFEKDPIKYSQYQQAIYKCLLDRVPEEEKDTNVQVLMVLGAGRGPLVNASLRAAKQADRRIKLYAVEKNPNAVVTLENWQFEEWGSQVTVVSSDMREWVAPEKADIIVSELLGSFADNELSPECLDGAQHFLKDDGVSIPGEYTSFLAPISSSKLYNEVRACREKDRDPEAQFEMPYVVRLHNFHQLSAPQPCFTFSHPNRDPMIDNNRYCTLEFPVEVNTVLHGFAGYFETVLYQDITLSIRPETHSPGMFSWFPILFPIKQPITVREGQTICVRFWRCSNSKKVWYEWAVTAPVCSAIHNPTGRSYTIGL
T4 sequence (Q9BQA1 2-342 partner limits assumed): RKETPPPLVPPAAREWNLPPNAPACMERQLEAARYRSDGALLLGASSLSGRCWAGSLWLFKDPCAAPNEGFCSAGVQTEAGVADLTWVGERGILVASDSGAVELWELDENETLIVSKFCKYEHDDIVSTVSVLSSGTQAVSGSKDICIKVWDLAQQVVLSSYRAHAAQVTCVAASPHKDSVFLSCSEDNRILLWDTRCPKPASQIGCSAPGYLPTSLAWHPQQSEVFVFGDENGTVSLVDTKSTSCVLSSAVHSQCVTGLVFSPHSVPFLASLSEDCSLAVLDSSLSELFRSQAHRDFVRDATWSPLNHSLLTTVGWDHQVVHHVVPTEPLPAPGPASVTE
T3 sequence (Q9NVM4 whole entry): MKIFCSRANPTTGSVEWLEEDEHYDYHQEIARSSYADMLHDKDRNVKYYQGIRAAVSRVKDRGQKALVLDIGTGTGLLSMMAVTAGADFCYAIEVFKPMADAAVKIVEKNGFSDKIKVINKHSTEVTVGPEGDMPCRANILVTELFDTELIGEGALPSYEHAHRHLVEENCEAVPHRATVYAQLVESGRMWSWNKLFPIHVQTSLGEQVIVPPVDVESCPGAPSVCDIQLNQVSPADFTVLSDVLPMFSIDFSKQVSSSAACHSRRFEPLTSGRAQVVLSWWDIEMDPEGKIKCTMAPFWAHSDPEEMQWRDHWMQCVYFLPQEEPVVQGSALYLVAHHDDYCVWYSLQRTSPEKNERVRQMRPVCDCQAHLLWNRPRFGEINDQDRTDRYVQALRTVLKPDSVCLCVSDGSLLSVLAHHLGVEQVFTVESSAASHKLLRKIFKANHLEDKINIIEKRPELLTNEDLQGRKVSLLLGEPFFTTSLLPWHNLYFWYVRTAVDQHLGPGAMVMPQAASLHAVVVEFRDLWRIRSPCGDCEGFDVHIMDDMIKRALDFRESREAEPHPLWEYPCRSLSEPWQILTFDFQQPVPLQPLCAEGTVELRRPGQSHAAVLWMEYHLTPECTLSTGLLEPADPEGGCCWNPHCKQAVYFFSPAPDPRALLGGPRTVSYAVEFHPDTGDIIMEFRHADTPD

CCn1c2ccccc2c2cc(CNCc3ccccc3OC)ccc21 [HLCL-61]
FLT3 response element (FLT3-promoter-Luciferase reporter) activities [1]: disrupted
survival after dosing ([2]; IV-2.5 mg/kg, one mouse): Alive 24 hr after
survival after dosing ([2]; mouse, in vivo, ip, 50 mg/kg, 24 h): Alive 24 hr after
clinical signs after dosing ([2]; mouse, in vivo, ip, 100 mg/kg): still slow moving
survival after dosing ([2]; mouse, in vivo, ip, 200 mg/kg, 24 h): Dead within 30 min
survival after dosing ([2]; mouse, in vivo, iv, 5 mg/kg, 24 h): Alive 24 hr after
clinical signs after dosing (slow moving) ([2]; mouse, in vivo, iv, 10 mg/kg): dosing but slow
survival after dosing ([2]; mouse, in vivo, iv, 10 mg/kg, 24 h): Alive 24 hr after
survival after dosing ([2]; mouse, in vivo, iv, 20 mg/kg): Dead instantly after
effect on PRMT4 enzymatic activity [3]: ineffectiveness
inhibition of PRMT1 enzyme ([4]; 10 μM, FIG. 17B): this non-specific activity is lost
inhibition of PRMT1 enzyme ([4]; 20 μM and above, FIG. 17A): non-specific inhibition
effect on PRMT1 enzymatic activity ([4]; FIG. 33A): ineffectiveness
effect on PRMT7 enzymatic activity [5]: ineffectiveness
IC50 [6]: 16.7 µM
IC50 [7]: 12 µM
